Several values for one entry are separate records, joined by “and”; a condition that tells them apart may be missing. Identical values can stand only once. Counter-ions that a name gives are not always drawn. Like-named read-outs stand apart in the source and are kept apart here.
What was measured:
Format in all cases: cell-based
NMDA receptor = assay: Whole cell patch clamp, NMDA-induced current in cultured chick spinal cord neurons; conditions: for mean NMDA induced current: control cultures 121±16 pA
Experimental: Cultures of dissociated spinal cord neurons were prepared as previously described (Farb, D. H., et al., J. Cell Biol., 80:651-661 (1979)). Briefly, the dissociated cells from 7-day chick embryos were plated on collagen-coated 35-mm tissue culture dishes in Eagle's minimum essential medium supplemented with 2.4 mM glutamine, 10% (v/v) heat-inactivated horse serum, 5% (v/v) chick embryo extract and antibiotics. Cultures were maintained in a humidified atmosphere of 5% CO2, 95% air at 37°. Cytarabine (1 μM) was added to the culture medium after 36 hr. of the initial plating to inhibit the proliferation of non-neuronal cells. One day later, this medium was replaced with a similar medium supplemented with 20.5 mM glucose, 19 mM KCl, and 2.5% chick embryo extract. Fresh medium was added twice weekly. Cultured neurons were used in experiments within 2-4 weeks after plating.
Experiments were carried out in 35-mm tissue culture dishes on the stage of an inverted phase contrast microscope. Whole cell currents were recorded by the whole cell variant of the patch clamp technique (Hamill, O. P., et al., Pfagers Arch. 891:85-100 (1981)). Patch electrodes had tip openings of about […] and resistances of 3-8 M.OMEGA. using an intracellular solution comprised of the following (in mM): 140 CsCl, 11 EGTA, and 10 HEPES (pH adjusted to 7.2 with CsOH). In experiments in which a high concentration of glycine was used, the intracellular solution was replaced with a low chloride (10 mM) pipette solution. This solution contained the following (in mM): 140 potassium gluconate, 10 KCl, 8 sodium gluconate, 11 EGTA, and 10 HEPES (pH adjusted to 7.2 with KOH). To prevent a marked run-down of NMDA-induced current at high NMDA concentrations, 4 mM potassium ATP was included in the intracellular solution. The bath solution contained the following (in mM): 150 NaCl, 4 KCl, 1 CaCl2, and 10 HEPES (pH adjusted to 7.2 with NaOH). No glycine was added to the solutions containing NMDA, because no additional glycine was required to obtain a robust NMDA response, and there was no effect of a maximal concentration (10 μM) of glycine on 5β3αS inhibition of the NMDA response. All experiments were performed at room temperature (23-25° C.).
Recordings were made using an Axopatch 1B patch clamp apparatus (Axon Instruments, Burlingame, Calif.). Cells with series resistances greater than 10 M.OMEGA. were rejected. After partial compensation, series resistances were between 3.5 and 6 M.OMEGA.. The holding potential was maintained at -70 mV unless otherwise noted. Currents were filtered at 1 kHz using an eight-pole Bessel filter (-3 dB) and digitized ([…]) using an on-line data acquisition system (pClamp, Axon Instruments).
Drug solutions were applied to single neurons by pressure ejection (15 psi) from seven-barrel pipettes. Seven-barrel pressure pipettes were positioned approximately […] from the neuronal soma. Under these conditions, the drug solution in the pressure pipette rapidly and effectively replaces the solution surrounding the target neurons with less than 10% dilution (Choi, D. W., et al., Nature (Lond.) 269:342-344 (1977); Chan, C. Y., et al., Life Sci., 83:2061-2069 (1983); Chan, C. Y. and Farb, D. H., J. Neurosci., 5:2365-2373 (1985)). All drugs were obtained from Sigma, with the except of AMPA hydrobromide (Research Biochemicals) and steroids (Steraloids). Stock solutions of steroids were prepared in dimethyl sulfoxide, the final concentration of which was 0.5% (v/v). To obviate the possible effects of dimethyl sulfoxide on the relevant agonist-induced currents, all other drug solutions including NMDA, kainate, AMPA and external buffer (in the pressure pipette) also contained 0.5% dimethyl sulfoxide. […]

[1] = target: T1, recombinant NMDA receptors (NR1100 and NR2A subunits) (Rattus norvegicus, UniProt P35439+Q00959); assay: Two electrode voltage-clamp of Xenopus oocytes expressing recombinant NMDA receptors
T1 construct: expressed in transfected cells; host or cells: Xenopus laevis oocytes injected with in vitro transcribed mRNA
Experimental: RNA preparation. mRNA were prepared through in vitro transcription of NR1100 and NR2A cDNAs using the mMessage mMachine kit (Ambion, Tex.). NR1100 and NR2A clones were kindly provided by Dr. Zukin and Dr. Nakanishie.
Xenopus expression system. Female, oocyte positive Xenopus laevis frogs were purchased from Nasco, Inc. (WI). The frogs were kept on a 12/12 light-dark cycle and maintained on a diet of chopped calf liver every 3 days. Prior to surgery, frogs were anesthetized in a 0.15% Tricaine solution (Sigma, Mo.) for 30-45 minutes. Ovarian sections containing the follicular oocytes were removed through a lateral abdominal incision and were immediately placed in calcium-free ND96 solution (in mM):96 NaCl; 1 MgCl2; 2 KCl; 5 Hepes; 2.5 pyruvate (pH adjusted to 7.4 with NaOH). Following a 2 hr. incubation in 0.2% collagenase type II (Sigma, Mo.) at room temperature, individual defolliculated oocytes were transferred into 60×15 mm glass petri dishes containing ND96 solution (in mM): 96 NaCl; 1 MgCl2; 2 KCl; 1.8 CaCl2; 5 Hepes; 2.5 pyruvate (pH adjusted to 7.4 with NaOH). The isolated oocytes were maintained in an incubator at 18° C. On the following date, batches of 20-40 selected oocytes (Dumont stage V and VI) were injected with 50 nl of prepared RNA solution (0.5 ng of NR1 and 12 ng of NR2A mRNAs per oocyte) using an electronic microinjector (Drummond, Pa.). The injected oocytes were used for electrophysiological experiments following 4-10 day incubation at 18° C.
Electrical recording and drug application. The ion current recordings were obtained in two electrodes voltage-clamp mode using an Axoclamp-2A amplifier (Axon Instruments, Inc., CA). The microelectrodes were fabricated with a programmed puller (Sutter Instrument Co., CA) from glass capillaries (Dagan, Minn.) and filled with 3M KCl solution. The resistance of filled microelectrodes was in the range of 2.5-3.5 M.OMEGA.. The oocytes were clamped at a holding potential of -70 mV. The membrane current was filtered at 500 Hz and sampled at 100 Hz frequency. The drugs were applied using a gravity driven external perfusion system. The data acquisition and external perfusion control were done using SuperScopeII software package (GW Instruments, MA). All experiments were performed at room temperature of 22-24° C.
The degree of modulation of the amino acid response by steroids, the percent change, was defined at (I'/I-1)×100%, where I and I' are respectively the agonist-induced currents in the absence and presence of steroid. Throughout, results are expressed as mean±SEM; statistical comparison of groups was carried out using Student's t test.

[2] = tested on: NMDA-induced cell death in primary neuronal cultures of rat hippocampal formation; assay: Trypan blue exclusion, NMDA-induced cell death (excitotoxicity) in primary hippocampal cultures; conditions: Rattus norvegicus, 200 μM 17β-estradiol hemisuccinate
From the text: Trypan blue exclusion was used to evaluate the ability of derivatives of pregnenolone sulfate to inhibit NMDA-induced cell death in primary neuronal cultures of rat hippocampal formation.
Mixed neuronal and glial cultures of hippocampal tissue were derived from fetal rats on day 18 of embryonic development and were maintained in culture for 16 to 24 days (Brewer, G. J., Brain Res., 494: 65-74 (1989)). Care for the animals used in this study was in accordance with institutional guidelines. Hippocampal tissue from Sprague-Dawley rat pups was collected immediately following removal from dams sacrificed with CO2 on embryonic day 18. Cells were dissociated by trituration in Ca^2 +/Mg^2 + free Hank's basic salt solution supplemented with 4.2 mM bicarbonate, 1 mM sodium pyruvate, 20 mM HEPES, 3 mg/ml BSA, and pelleted by centrifugation (900 rpm, 3 min). The resulting pellet was suspended in DMEM supplemented with 2.4 mg/ml BSA, 26.5 mM sodium bicarbonate, 1 mM sodium pyruvate, 20 mM HEPES, 10% FBS, 100 units/ml penicillin, 100 μg/ml streptomycin, and a modification of Brewers B16 defined components (with […] vitamin B12 and without catalase, glutathione, and superoxide dismutase) (Pike, C. J., et al., Neurosci. 13:1676-87 (1993)) and plated onto poly-L-lysine coated 24 well culture dishes (Nunclon) at a density of 15,000 cells/cm^2 and were maintained in a humidified incubator in 5% CO2 /95% air at 37° C. After 5 days in vitro, nonneuronal cell division was inhibited by exposure to 2×10^-6 M cytosine arabinoside for 48 hrs. Cells were subsequently maintained in medium identical to that used for platting without BSA or FBS.
The number of living neurons was determined by assessing the ability of cells to exclude trypan blue 16 hrs. after the addition of drug solutions to the medium of individual culture wells (Dawson, V. L., et al., Proc. Natl. Acad. Sci. USA, 88:6368-6371 (1991)). Drugs were introduced to cultures in 100 μl of conditioned media, collected from experimental cultures just prior to treatment, to a final volume of 0.5 ml. NMDA was dissolved in DMEM at concentrations of 0-5 mM so that addition of 10 μl yielded final concentrations of 0-100 μM. MK-801, a positive control, was dissolved in DMEM at a concentration of 1 mM so that addition of 5 μl yielded a final concentration of 10 μM. Control cultures were exposed only to an equivalent volume of DMEM, and concentration of DMSO (0.5%). The concentrations of the pregnenolone sulfate derivatives were as follows: 10-100 μM 5β3αS, 100 μM 5β3α hemisuccinate and 200 μM 17β-estradiol hemisuccinate.
After exposure to drugs, the medium was replaced by 0.1 M sodium phosphate buffer/0.4% trypan blue. Cell death was assessed by counting the number of trypan blue positive and negative neurons in five high power fields per culture well with an inverted phase contrast microscope using both bright field and phase settings. Cell death is expressed as the ratio of the number of trypan blue positive to total number of cells counted in each well×100 (percent cell death).

T1 sequence (Q00959 23-1464, other chains not shown): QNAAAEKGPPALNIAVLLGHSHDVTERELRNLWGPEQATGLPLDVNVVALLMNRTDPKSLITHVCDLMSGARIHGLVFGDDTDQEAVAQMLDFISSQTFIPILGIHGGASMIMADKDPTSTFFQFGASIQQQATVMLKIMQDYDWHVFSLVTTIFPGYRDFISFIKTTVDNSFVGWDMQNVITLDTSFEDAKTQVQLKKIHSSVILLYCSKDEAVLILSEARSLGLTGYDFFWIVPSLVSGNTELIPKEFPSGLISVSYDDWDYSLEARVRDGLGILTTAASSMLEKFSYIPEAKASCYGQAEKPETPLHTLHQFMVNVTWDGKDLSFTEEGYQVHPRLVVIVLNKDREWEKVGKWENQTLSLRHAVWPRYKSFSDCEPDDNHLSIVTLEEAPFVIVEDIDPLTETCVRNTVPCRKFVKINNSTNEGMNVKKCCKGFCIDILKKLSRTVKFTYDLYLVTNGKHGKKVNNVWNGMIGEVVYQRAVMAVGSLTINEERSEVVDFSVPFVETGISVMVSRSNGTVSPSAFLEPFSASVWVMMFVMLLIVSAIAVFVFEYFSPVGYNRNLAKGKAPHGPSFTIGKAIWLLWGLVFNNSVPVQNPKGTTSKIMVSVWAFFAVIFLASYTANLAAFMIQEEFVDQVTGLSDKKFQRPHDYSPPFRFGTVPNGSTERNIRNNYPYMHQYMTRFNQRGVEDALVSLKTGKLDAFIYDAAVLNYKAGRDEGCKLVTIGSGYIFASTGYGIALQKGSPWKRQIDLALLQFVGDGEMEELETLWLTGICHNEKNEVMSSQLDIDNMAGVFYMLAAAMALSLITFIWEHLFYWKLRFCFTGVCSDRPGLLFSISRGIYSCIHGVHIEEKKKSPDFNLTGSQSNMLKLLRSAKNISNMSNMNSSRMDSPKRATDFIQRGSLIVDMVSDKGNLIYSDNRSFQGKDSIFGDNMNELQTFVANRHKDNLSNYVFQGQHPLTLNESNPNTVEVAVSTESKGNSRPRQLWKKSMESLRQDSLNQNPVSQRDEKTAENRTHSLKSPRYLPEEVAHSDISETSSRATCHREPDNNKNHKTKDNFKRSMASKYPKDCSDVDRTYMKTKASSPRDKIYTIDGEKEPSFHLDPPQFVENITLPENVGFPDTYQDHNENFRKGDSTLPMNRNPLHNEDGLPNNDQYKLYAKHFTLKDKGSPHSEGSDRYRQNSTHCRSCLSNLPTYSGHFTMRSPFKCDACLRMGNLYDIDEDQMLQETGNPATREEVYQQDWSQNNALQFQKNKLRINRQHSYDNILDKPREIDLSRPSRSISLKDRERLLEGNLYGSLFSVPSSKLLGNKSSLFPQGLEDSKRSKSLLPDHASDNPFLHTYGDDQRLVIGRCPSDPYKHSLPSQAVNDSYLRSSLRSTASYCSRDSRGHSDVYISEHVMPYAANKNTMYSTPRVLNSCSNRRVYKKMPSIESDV

With `O[C@H](CS)[C@H](O)CS` (racemic) [DTT, dithiothreitol, reference compound] the “NMDA current, % of control” value (NMDA receptor; 4 mM DTT, after 180 seconds of exposure) was 273±19% and the “mean NMDA induced current” value (NMDA receptor; after approximately an hour of exposure to 4 mM DTT) was 326±82 pA.

With `CCCCC/C=C\C/C=C\C/C=C\C/C=C\CCCC(=O)O` [arachidonic acid, reference compound] the “potentiation of the 30 μM NMDA response” value (NMDA receptor; 10 μM arachidonic acid alone) was 120±35% and the “potentiation of the NMDA response” value (NMDA receptor; 10 μM arachidonic acid in the presence of 100 μM PS) was 158±22%.

`CC(=O)[C@H]1CC[C@H]2[C@@H]3CC[C@H]4C[C@@H](OS(=O)(=O)O)CC[C@]4(C)[C@H]3CC[C@]12C` [5α3βS, 5α-pregnan-3β-ol-20-one sulfate, reference compound] was tested, and the “inhibition of the NMDA-induced current” value (NMDA receptor; steroid concentration not given) was 1±2.6%.

For `C[C@]12CC[C@H](OS(=O)(=O)O)CC1=CC[C@@H]1[C@@H]2CC[C@]2(C)C(=O)CC[C@@H]12` [DHEAS, Dehydroepiandrosterone sulfate, reference compound], the “potentiation of the NMDA response” value (NMDA receptor; concentration not in the sentence (100 μM in Table 1)) was 28.8±8.8% and 28.8%.

With `CN[C@H](CC(=O)O)C(=O)O` [NMDA, N-methyl-D-aspartate] the “NMDA nH” value (NMDA receptor; in the absence of 5β3αS) was 1.01, the “NMDA Imax” value (NMDA receptor; in the absence of 5β3αS, normalized to the peak current induced by 100 μM NMDA) was 2.56 and the EC50 (NMDA receptor; read-out: NMDA EC50, in the absence of 5β3αS) was 156 µM. It also gave an EC50 [1] of 62 ± 4 µM.

With `CCN1C(=O)C=CC1=O` [NEM, N-ethylmaleimide, reference compound] the “mean NMDA induced current” value (NMDA receptor; 5 min 4 mM DTT, then 2 min 4 mM DTT plus 300 μM NEM) was 367±82 pA.

Work on `C[C@]12CC[C@@H]3c4ccc(OC(=O)CCC(=O)O)cc4CC[C@H]3[C@@H]1CC[C@@H]2O` [17β-estradiol hemisuccinate] yielded an inhibition at 200 µM ([2]; read-out: inhibition of the cell death induced by chronic NMDA) of 40% and an inhibition at 200 µM ([2]; read-out: inhibition of the cell death produced by short term exposure to NMDA) of 65%.

For `NCCCNCCCCNCCCN` [spermine, reference compound], the “potentiation of the NMDA induced current” value (NMDA receptor; 100 μM spermine (maximal)) was 136±33% and the “potentiation of the NMDA induced current” value (NMDA receptor; 250 μM spermine) was 67±21%.
